Laboratory results reported in PubChem BioAssay AID1259407 (Chemical Carcinogenesis Research Information System (CCRIS), 2018).
Calls of active or inactive are those of the source. The rule behind the calls is not given here.

Tested on: CCRIS mutagenicity, Ames/micronucleus/aberration tests
Assay: CCRIS mutagenicity studies

With `O=C1c2ccccc2C(=O)c2ccccc21` the mutagenic call (End Point: IN VIVO MICRONUCLEUS, Test System: BONE MARROW POLYCHROMATIC ERYTHROCYTES, Species: MOUSE, Strain/Sex: B6C3F1/MALE, Route: IP INJECTION IN CORN OIL) was “inactive; negative”, the mutagenic call (End Point: IN VIVO MICRONUCLEUS, Test System: PERIPHERAL BLOOD ERYTHROCYTES, Species: MOUSE, Strain/Sex: B6C3F1/MALE, FEMALE, Route: DIET) was “active; positive (at highest dose); (99.8% pure)” and the mutagenic call (Test System: AMES SALMONELLA TYPHIMURIUM, Strain/Indicator: TA97, Metabolic Activation: NONE, Method: STANDARD PLATE) was “inactive; negative”. For the same molecule, the mutagenic call (Test System: AMES SALMONELLA TYPHIMURIUM, Strain/Indicator: TA97, Metabolic Activation: RAT, LIVER, S-9, PCB, Method: STANDARD PLATE) was “inactive; negative”, the mutagenic call (Test System: AMES SALMONELLA TYPHIMURIUM, Strain/Indicator: TA98, Metabolic Activation: HAMSTER, LIVER, S-9, AROCLOR 1254, Method: STANDARD PLATE) was “inactive; negative” and the mutagenic call (Test System: AMES SALMONELLA TYPHIMURIUM, Strain/Indicator: TA98, Metabolic Activation: NONE, Method: STANDARD PLATE) was “inactive; negative”. The mutagenic call (Test System: AMES SALMONELLA TYPHIMURIUM, Strain/Indicator: TA98, Metabolic Activation: RAT LIVER S-9, AROCLOR, Method: STANDARD PLATE) was “inactive; negative”, the mutagenic call (Test System: AMES SALMONELLA TYPHIMURIUM, Strain/Indicator: TA98, Metabolic Activation: RAT LIVER S-9, PHENOBARBITAL AND BETA-NAPHTHOFLAVONE (30%), Method: PREINCUBATION) was “inactive; negative” and the mutagenic call (Test System: AMES SALMONELLA TYPHIMURIUM, Strain/Indicator: TA98, Metabolic Activation: RAT LIVER S-9, PHENOBARBITAL AND BETA-NAPHTHOFLAVONE, Method: PREINCUBATION) was “inactive; negative”. For the same molecule, the mutagenic call (Test System: AMES SALMONELLA TYPHIMURIUM, Strain/Indicator: TA98, Metabolic Activation: RAT, LIVER S-9, AROCLOR 1254 (10%, 30%), Method: PREINCUBATION) was “inactive; negative; 99.8% pure”, the mutagenic call (Test System: AMES SALMONELLA TYPHIMURIUM, Strain/Indicator: TA98, Metabolic Activation: RAT, LIVER, S-9, AROCLOR 1254, Method: STANDARD PLATE) was “inactive; negative” and the mutagenic call (Test System: AMES SALMONELLA TYPHIMURIUM, Strain/Indicator: TA98, Metabolic Activation: RAT, LIVER, S-9, PCB, Method: STANDARD PLATE) was “inactive; negative”. The mutagenic call (Test System: AMES SALMONELLA TYPHIMURIUM, Strain/Indicator: TA100, Metabolic Activation: HAMSTER, LIVER, S-9, AROCLOR 1254, Method: STANDARD PLATE) was “inactive; negative”, the mutagenic call (Test System: AMES SALMONELLA TYPHIMURIUM, Strain/Indicator: TA100, Metabolic Activation: NONE, Method: STANDARD PLATE) was “inactive; negative” and the mutagenic call (Test System: AMES SALMONELLA TYPHIMURIUM, Strain/Indicator: TA100, Metabolic Activation: RAT LIVER S-9, AROCLOR, Method: STANDARD PLATE) was “inactive; negative”. For the same molecule, the mutagenic call (Test System: AMES SALMONELLA TYPHIMURIUM, Strain/Indicator: TA100, Metabolic Activation: RAT LIVER S-9, PHENOBARBITAL AND BETA-NAPHTHOFLAVONE (30%), Method: PREINCUBATION) was “inactive; negative”, the mutagenic call (Test System: AMES SALMONELLA TYPHIMURIUM, Strain/Indicator: TA100, Metabolic Activation: RAT LIVER S-9, PHENOBARBITAL AND BETA-NAPHTHOFLAVONE, Method: PREINCUBATION) was “inactive; negative” and the mutagenic call (Test System: AMES SALMONELLA TYPHIMURIUM, Strain/Indicator: TA100, Metabolic Activation: RAT, LIVER S-9, AROCLOR 1254 (10%, 30%), Method: PREINCUBATION) was “inactive; negative; 99.8% pure”. The mutagenic call (Test System: AMES SALMONELLA TYPHIMURIUM, Strain/Indicator: TA100, Metabolic Activation: RAT, LIVER, S-9, AROCLOR 1254, Method: STANDARD PLATE) was “inactive; negative”, the mutagenic call (Test System: AMES SALMONELLA TYPHIMURIUM, Strain/Indicator: TA100, Metabolic Activation: RAT, LIVER, S-9, PCB, Method: STANDARD PLATE) was “inactive; negative” and the mutagenic call (Test System: AMES SALMONELLA TYPHIMURIUM, Strain/Indicator: TA102, Metabolic Activation: NONE, Method: PREINCUBATION) was “inactive; negative; 100% pure”. The mutagenic call (Test System: AMES SALMONELLA TYPHIMURIUM, Strain/Indicator: TA102, Metabolic Activation: RAT, LIVER, S-9, AROCLOR 1254 (10%), Method: PREINCUBATION) was “inactive; negative; 100% pure”, the mutagenic call (Test System: AMES SALMONELLA TYPHIMURIUM, Strain/Indicator: TA102, Metabolic Activation: RAT, LIVER, S-9, AROCLOR 1254, Method: STANDARD PLATE) was “inactive; negative” and the mutagenic call (Test System: AMES SALMONELLA TYPHIMURIUM, Strain/Indicator: TA1535, Metabolic Activation: HAMSTER, LIVER, S-9, AROCLOR 1254, Method: STANDARD PLATE) was “inactive; negative”. The mutagenic call (Test System: AMES SALMONELLA TYPHIMURIUM, Strain/Indicator: TA1535, Metabolic Activation: NONE, Method: PREINCUBATION) was “inactive; negative”, the mutagenic call (Test System: AMES SALMONELLA TYPHIMURIUM, Strain/Indicator: TA1535, Metabolic Activation: NONE, Method: STANDARD PLATE) was “inactive; negative” and the mutagenic call (Test System: AMES SALMONELLA TYPHIMURIUM, Strain/Indicator: TA1535, Metabolic Activation: RAT LIVER S-9, AROCLOR, Method: STANDARD PLATE) was “inactive; negative”. The mutagenic call (Test System: AMES SALMONELLA TYPHIMURIUM, Strain/Indicator: TA1535, Metabolic Activation: RAT LIVER S-9, PHENOBARBITAL AND BETA-NAPHTHOFLAVONE (30%), Method: PREINCUBATION) was “inactive; negative”, the mutagenic call (Test System: AMES SALMONELLA TYPHIMURIUM, Strain/Indicator: TA1535, Metabolic Activation: RAT LIVER S-9, PHENOBARBITAL AND BETA-NAPHTHOFLAVONE, Method: PREINCUBATION) was “inactive; negative” and the mutagenic call (Test System: AMES SALMONELLA TYPHIMURIUM, Strain/Indicator: TA1535, Metabolic Activation: RAT, LIVER, S-9, AROCLOR 1254, Method: STANDARD PLATE) was “inactive; negative”. The mutagenic call (Test System: AMES SALMONELLA TYPHIMURIUM, Strain/Indicator: TA1537, Metabolic Activation: HAMSTER, LIVER, S-9, AROCLOR 1254, Method: STANDARD PLATE) was “inactive; negative”, the mutagenic call (Test System: AMES SALMONELLA TYPHIMURIUM, Strain/Indicator: TA1537, Metabolic Activation: NONE, Method: STANDARD PLATE) was “inactive; negative” and the mutagenic call (Test System: AMES SALMONELLA TYPHIMURIUM, Strain/Indicator: TA1537, Metabolic Activation: RAT LIVER S-9, AROCLOR, Method: STANDARD PLATE) was “inactive; negative”. The mutagenic call (Test System: AMES SALMONELLA TYPHIMURIUM, Strain/Indicator: TA1537, Metabolic Activation: RAT LIVER S-9, PHENOBARBITAL AND BETA-NAPHTHOFLAVONE (30%), Method: PREINCUBATION) was “active; positive”, the mutagenic call (Test System: AMES SALMONELLA TYPHIMURIUM, Strain/Indicator: TA1537, Metabolic Activation: RAT LIVER S-9, PHENOBARBITAL AND BETA-NAPHTHOFLAVONE, Method: PREINCUBATION) was “inactive; negative” and the mutagenic call (Test System: AMES SALMONELLA TYPHIMURIUM, Strain/Indicator: TA1537, Metabolic Activation: RAT, LIVER S-9, AROCLOR 1254 (10%, 30%), Method: PREINCUBATION) was “inactive; negative; 99.8% pure”. The mutagenic call (Test System: AMES SALMONELLA TYPHIMURIUM, Strain/Indicator: TA1537, Metabolic Activation: RAT, LIVER, S-9, AROCLOR 1254, Method: STANDARD PLATE) was “inactive; negative”, the mutagenic call (Test System: E. COLI, Strain/Indicator: WP2 UVRA, Metabolic Activation: NONE, Method: STANDARD PLATE) was “inactive; negative” and the mutagenic call (Test System: E. COLI, Strain/Indicator: WP2 UVRA, Metabolic Activation: RAT LIVER S-9, AROCLOR, Method: STANDARD PLATE) was “inactive; negative”. For the same molecule, the mutagenic call (Test System: E.COLI, Strain/Indicator: WP2UVRA, Metabolic Activation: NONE, Method: PREINCUBATION) was “inactive; negative”, the mutagenic call (Test System: E.COLI, Strain/Indicator: WP2UVRA, Metabolic Activation: RAT LIVER S-9, PHENOBARBITAL AND BETA-NAPHTHOFLAVONE (30%), Method: PREINCUBATION) was “inactive; negative” and the mutagenic call (Test System: E.COLI, Strain/Indicator: WP2UVRA, Metabolic Activation: RAT LIVER S-9, PHENOBARBITAL AND BETA-NAPHTHOFLAVONE, Method: PREINCUBATION) was “inactive; negative”. For the same molecule, the mutagenic call (Test System: MOUSE LYMPHOMA, Strain/Indicator: L5178Y (TK+/TK-), Metabolic Activation: NONE, Method: SUSPENSION/PLATE) was “inactive; negative” and the mutagenic call (Test System: MOUSE LYMPHOMA, Strain/Indicator: L5178Y (TK+/TK-), Metabolic Activation: RAT LIVER S-9, AROCLOR, Method: SUSPENSION/PLATE) was “inactive; negative”.
For `Cn1c(N)nc2cc3ccccc3cc21`, the mutagenic call (Test System: AMES SALMONELLA TYPHIMURIUM, Strain/Indicator: TA98, Metabolic Activation: RAT, LIVER, S-9, AROCLOR 1254A, Method: STANDARD PLATE) was “active; positive” and the mutagenic call (Test System: AMES SALMONELLA TYPHIMURIUM, Strain/Indicator: YG1024, Metabolic Activation: RAT, LIVER, S-9, AROCLOR 1254A, Method: STANDARD PLATE) was “active; positive”.
